The test system of one experiment is PLA2g6. Briefly: PLA2g6 catalytic activity in homogenates of brain or MEFs. It is filed as biochemical, mouse. Conditions: no differences between KO^Ex2 and WT. As to the method:
The activity of PLA2g6 (FIG. 14) was determined using modified PLA2 assay kit (Cayman, USA), as previously described (56, 63). Briefly, after each experimental treatment, MEFs were homogenized using a cold lysis buffer (10 mM Tris-HCl, pH 7.0, 300 mM sucrose, 0.5% Triton X-100). To identify specific activity of Ca^2+-independent PLA2g6, the assay buffers were modified to contain no Ca^2+, and phospholipase activity was assayed by incubating the samples with the substrate, 1-hexadecyl-2-arachidonoylthio-2-deoxy-sn-glycero-3-phosphorylcholine for 1 h at room temperature in a modified Ca^2+-free assay buffer (10 mM HEPES, pH 7.4, 300 mM NaCl, 60% glycerol, 8 mM Triton X-100, 4 mM EGTA, and 2 mg/ml bovine serum albumin). The generated free thiols were visualized by the addition of DTNB (5,5′-dithiobis(2-[…])) for 5 min, and the absorbance was determined at 405 nm using a standard microplate reader. In calculations of specific PLA2g6 activity a value of 10 mM^−1 was used as extinction coefficient for DTNB at 405 nm. Summary data present average (±SEM) from 3 independent experiments for each condition.

For experiment [1], the system named is store-operated Ca^2+ entry (SOCE). Briefly: Ca^2+ imaging, store-operated Ca^2+ entry in MEFs. It counts as cell-based, mouse. Conditions: MEFs from WT mice. As to the method: (§1) MEFs were cultured in glass bottom dishes coated with fibronectin (2.5 μg/cm^2, Sigma, St. Louis, Mo., USA) for 24-48 hours. Intracellular Ca^2+ measurements were done similar to published earlier (57). Briefly, the cells were loaded with fura-2/AM (5 μM) (Invitrogen), and cytosolic Ca^2+ (measured as F340/F380 ratio) was recorded simultaneously in 10-20 individual cells using a dual-excitation fluorescence imaging system (Intracellular Imaging, USA): representative traces show an average (±SEM) for 10-20 cells recorded simultaneously. Ca^2+ changes were calculated as Δ Ratio(F340/F380), which is the difference between the basal and peak values of Ca^2+ responses.
(§2) The following treatments were used in Ca^2+ studies (FIG. 14): TPEN (N,N,N′,N′-Tetrakis(2-pyridylmethyl)ethylenediamine, Sigma, USA) was applied (400 μM) directly to the cells during recording, 3 min before 2 mM Ca^2+ addition; (S)-BEL ((S)-bromoenol lactone, Cayman, USA) was applied (50 μM for 20 min in serum-free medium at 37° C.) to the cells after their loading with fura-2/AM, and was washed away before the start of experiment; EGTA (2.5 mM) was added to 2 mM Ca^2+-containing bath solution right before ionomycin (IM, 1 μM) application.

Experiment [2] concerns intracellular Ca^2+ stores. Briefly: Ca^2+ imaging, ionomycin-induced Ca^2+ release from intracellular stores in MEFs. It is filed as cell-based, mouse. Conditions: MEFs from KO^Ex2 mice compared to WT; IM 1 μM, extracellular EGTA. As to the method: as §1, §2
The next experiment relates to KO^Ex2 mice. Briefly: L-DOPA challenge, beam balance test. It is filed as in vivo, mouse. Here is the method: The balance beam test (FIG. 10d) was performed using standard approach (55). […] KO^ex2 and WT males from 8 to 24 month of age were tested. Each mouse was placed on a beam for 2 minutes, and its movement was recorded by video camera. The total travel distance, the number of missteps (paw faults, or slips) during travel were analyzed for each mouse, and data summarized for each group as mean±SEM; the numbers of animals used for each time point is identified on the graphs. L-DOPA challenge test (FIG. 10e) was performed on KO^ex2 and WT littermates mice at 12, 16 and 24 months of age. Control beam balance test was performed in the morning a day before L-DOPA challenge. In the morning of the following day, all mice received a single dose of L-3,4-dihydroxyphenylalanine (L-DOPA) via peritoneal injection. Three different doses (5, 10 and 25 mg/kg, Sigma) were tested on the same groups of animals in separate experiments performed with 2-3 days intervals. During each test 20 minutes before L-DOPA administration, mice were given 6 mg/kg of Benserazide (Sigma) to inhibit peripheral DOPA decarboxylase. Beam balance test was done 1 h after L-DOPA injection, as described above. Video-recorded data for each mouse were analyzed later, and summarized for each group as mean±SEM; the numbers of animals used for these studies is identified on the graphs.

For `O=C1O/C(=C/Br)CC[C@H]1c1cccc2ccccc12` [S-BEL, (S)-bromoenol lactone], the “effect on PLA2g6 catalytic activity” value in the experiment on PLA2g6 is listed as “inhibition”. In addition, in experiment [1] (S-BEL 50 μM for 20 min pretreatment), the “effect on TPEN-induced Ca^2+ entry” value was “S-BEL-sensitive”.

With `O=C(O)CN(CCOCCOCCN(CC(=O)O)CC(=O)O)CC(=O)O` [EGTA], the “effect on PLA2g6 catalytic activity” value in the experiment with PLA2g6 is “activation”.

Take `c1ccc(CN(CCN(Cc2ccccn2)Cc2ccccn2)Cc2ccccn2)nc1` [TPEN, N,N,N′,N′-Tetrakis(2-pyridylmethyl)ethylenediamine]: in experiment [1] (TPEN 400 μM), the “store-operated Ca^2+ entry” value is “activated”.

For the compound `C[C@H](CCC(=O)O)C[C@H](C)C[C@H](C)C(=O)/C=C(\O)[C@H](C)C[C@H](C)C/C=C/[C@@H](C)[C@@H](O)[C@@H](C)[C@@H](O)C[C@@H]1CC[C@@](C)([C@H]2CC[C@@](C)([C@@H](C)O)O2)O1` [ionomycin], in experiment [2], the “decrease in the peak of Ca^2+ release caused by ionomycin” value was 60%.

As for `N[C@@H](Cc1ccc(O)c(O)c1)C(=O)O` [L-DOPA, L-3,4-dihydroxyphenylalanine], the “number of missteps in beam balance test” value with KO^Ex2 mice (KO^Ex2 mice at 12, 16 and 24 months, L-DOPA 5-25 mg/kg, dose and age-dependent manner) is recorded as “significantly reduced”. The “motor performance (PD-like motor dysfunction)” value in the experiment on KO^Ex2 mice (KO^Ex2 mice, L-DOPA 5-25 mg/kg peritoneal injection, Benserazide 6 mg/kg 20 min before, test 1 h after injection) was “significantly improved”.

Values taken from patent US10390521B2, “Parkinsons disease model and methods” (Boston Medical Center Corporation, priority 2013, dated 2019).
